Experimental data reported in PMC9605374 (Marine Drugs, 2022).

Experiments:
noncancer cells = assay: MTT assay, mean IC50 in noncancer cell panel; assay type: cell-based; details: Homo sapiens, mean over PNT2, RWPE-1, HEK293, MRC-9, 48 h
Excerpt: To examine the anticancer potential and selectivity of NB, we used a panel of six human prostate cancer cell lines, harboring different levels of treatment resistance to representatively reflect the heterogeneity of the disease. […] Additionally, four human noncancer cells lines were utilized in order to determine the selectivity of NB towards prostate cancer cells, i.e., prostate noncancer PNT2 and RWPE-1 cells, human embryonic kidney HEK 293T cells, and human fibroblasts MRC-9. The different cell lines were treated with NB and the cell viability was examined using MTT assay (Figure 1). The mean IC50 of NB and docetaxel (used as a reference substance) in noncancerous cell lines was divided by the mean IC50 in the prostate cancer cell lines to determine the selectivity index (SI).
The MTT assay was used to monitor the effect of the drugs on cell viability in terms of metabolic activity, as previously reported. First, preincubation of the cells in 96-well plates (6 × 10^3 cells/well in 100 μL/well) was performed overnight in the correspondent culture medium. Next, the medium was exchanged for fresh medium containing the investigated compounds or a vehicle (100 μL/well). […] Finally, 50 μL/well of DMSO were added to solve the formed formazan crystals produced by the metabolic active cells and Infinite F200PRO reader (TECAN, Männedorf, Switzerland) was used to measure the cell viability. […]

22Rv1 cells = assay: Cell cycle progression and DNA fragmentation analysis (PI, flow cytometry); assay type: cell-based, human; details: 22Rv1, 48 h
Method: Figure 4 Investigation of the proapoptotic activity of NB. Flow cytometry analysis of 22Rv1 cells after 48 h of treatment. (A) Cell cycle and DNA fragmentation analysis. Treated cells were stained with PI and analyzed using a flow cytometry technique. Sub-G1 population was assumed to be apoptotic cells containing fragmentated DNA. (B) Analysis of phosphatidylserine externalization. Treated cells were double-stained with annexin-V-FITC and PI and analyzed using the flow cytometry technique. Cells of the low left quadrant (annexin-V-FITC^−/PI^−) were considered as alive cells. The Cell Quest Pro v.5.2.1 software (BD Bioscience, San Jose, CA, USA) was used to analyze and quantify the FACS data. Cells treated for 48 h with 10 µM of anisomycin were used as a positive control. Number of replicates n = 3. Statistical significance: * p < 0.05 (ANOVA). […]
DNA fragmentation and cell cycle progression of treated and untreated cells (negative control) were analyzed by flow cytometry as previously described. […]

p-gp in PC3-DR cells = assay: Western blotting, p-gp expression; assay type: cell-based, human; details: 48 h, up to 6 µM
Method: Number of replicates n = 3. […] Viability was measured using an MTT assay. Number of replicates n = 3.
It is important to note that a reduction in p-gp activity could be conditioned by p-gp degradation or cell death-related processes. Consequently, using a Western blotting analysis, we measured p-gp expressional levels in the treated PC3-DR cells. […] Thus, the observed effect on p-gp activity seems to be exclusively related to the interaction of NB with p-gp rather than result from any cell death-related events.
The Western blot assay was executed as previously described: 1 × 10^6 cells were seeded in Petri dishes (ø 6 cm, 5 mL/dish) and incubated overnight. On the next day, the cells were treated with the compounds in fresh culture media (5 mL/dish) for the indicated time. Next, cells were harvested with a cell scraper and lysed in lysis buffer including protease and phosphatase inhibitors cocktail (Roche, Mannheim, Germany). Cell debris were removed from the protein lysates via centrifugation. Afterwards, the cell-free protein mixtures were separated in gradient ready-made Mini-PROTEAN® TGX Stain-Free^TM gels (Bio-Rad, Hercules, CA, USA) using SDS-PAGE (sodium dodecylsulfate polyacrylamide gel electrophoresis). Then, the proteins were blotted onto ø 0.2 µm pore PVDF membrane. […] The signals were detected using the ECL chemiluminescence system (Thermo Scientific, Rockford, IL, USA).

splenocytes = test system: splenocytes; set-up: method as in PMID 27355960; details: cited from earlier work
[1] = biological target: p-glycoprotein (p-gp, MDR1) in PC3-DR cells (Homo sapiens, UniProt P08183); assay: Calcein-AM exclusion assay, p-glycoprotein activity
Chain of p-glycoprotein (p-gp, MDR1) in PC3-DR cells (P08183 whole entry): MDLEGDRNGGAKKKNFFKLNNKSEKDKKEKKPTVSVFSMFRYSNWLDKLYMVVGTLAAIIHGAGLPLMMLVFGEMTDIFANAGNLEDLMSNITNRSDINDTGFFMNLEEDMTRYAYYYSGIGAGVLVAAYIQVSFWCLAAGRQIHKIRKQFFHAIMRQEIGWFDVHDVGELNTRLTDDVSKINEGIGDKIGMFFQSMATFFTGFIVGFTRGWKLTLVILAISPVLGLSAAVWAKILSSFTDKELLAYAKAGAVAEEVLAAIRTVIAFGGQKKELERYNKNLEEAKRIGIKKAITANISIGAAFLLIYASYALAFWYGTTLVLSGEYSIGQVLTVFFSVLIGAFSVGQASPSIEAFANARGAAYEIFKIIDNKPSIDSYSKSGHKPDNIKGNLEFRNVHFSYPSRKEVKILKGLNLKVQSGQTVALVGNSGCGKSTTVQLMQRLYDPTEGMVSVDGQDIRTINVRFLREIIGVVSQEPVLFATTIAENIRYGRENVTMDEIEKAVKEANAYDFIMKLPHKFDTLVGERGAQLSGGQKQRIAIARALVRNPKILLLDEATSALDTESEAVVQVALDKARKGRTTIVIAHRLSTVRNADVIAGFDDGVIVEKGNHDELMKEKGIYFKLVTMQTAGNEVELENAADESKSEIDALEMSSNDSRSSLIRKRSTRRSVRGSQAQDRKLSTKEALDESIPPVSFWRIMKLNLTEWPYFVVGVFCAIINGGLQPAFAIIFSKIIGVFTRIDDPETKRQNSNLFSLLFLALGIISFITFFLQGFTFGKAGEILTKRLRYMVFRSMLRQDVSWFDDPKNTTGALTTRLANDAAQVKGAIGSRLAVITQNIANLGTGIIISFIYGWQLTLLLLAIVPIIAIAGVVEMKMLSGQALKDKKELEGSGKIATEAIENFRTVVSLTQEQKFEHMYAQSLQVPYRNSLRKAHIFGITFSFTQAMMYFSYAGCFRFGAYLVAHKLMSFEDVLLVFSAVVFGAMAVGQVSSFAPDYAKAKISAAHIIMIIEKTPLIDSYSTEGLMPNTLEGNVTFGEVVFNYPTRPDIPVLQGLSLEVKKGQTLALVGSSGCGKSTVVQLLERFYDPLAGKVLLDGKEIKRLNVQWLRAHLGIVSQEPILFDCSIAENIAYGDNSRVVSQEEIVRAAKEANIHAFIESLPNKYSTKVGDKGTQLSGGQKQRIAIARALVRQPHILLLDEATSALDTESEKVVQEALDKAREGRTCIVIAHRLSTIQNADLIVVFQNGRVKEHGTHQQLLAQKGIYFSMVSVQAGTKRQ

## COc1ccc(C2SSC34CC5(O)C(Cl)C=CC(O)C5ON3C(=O)C2N(C)C4=O)c(O)c1OC (stereo not shown) [NB, N-methylpretrichodermamide B]
Noncancer cells
  IC50: 15.5 µM
22Rv1 cells
  DNA fragmentation (sub-G1 population): caused DNA fragmentation
  cell cycle arrest: G1-phase arrest
p-gp in PC3-DR cells
  p-gp expression: no significant changes in p-gp expression
splenocytes
  ID50, cytotoxic activity in splenocytes: 62.1 µM
[1]; 30 min exposure, nanomolar concentrations, dose-dependent
  calcein accumulation (green fluorescence), p-gp inhibition: significantly increased the green fluorescence
[1]; calcein-AM, noncytotoxic concentration
  concentration at which an inhibitory effect on p-gp activity was already detected: 312.5 nM
